Key:
[1] = system: non induced human leukocytes; test: α-interferon production in non induced human leukocytes, ELISA of supernatant; type: cell-based; conditions: absence of a viral inducer
Protocol: Human leukocytes prepared from buffy coats and used in concentrations between 8 and 11 million cells per mL are incubated in a basal media (either EMEM or a modified EMEM) supplemented with 1.5 g/L of tricine and 4% (v/v) PEG precipitated plasma. The experiments are performed in a volume of 40 mL medium in 100 mL glass bottles under continuous stirring. The cells are primed with 100 IU/mL α-interferon for 1.5 hours at 37° C. before addition of 30 mL/L Sendai virus. After 1.5 hours the incubation temperature is decreased to 30° C. and the organic solvents are added to the incubation medium. The solvent used are acetone, DMSO (final concentration: 5 mL/L), 2-butanone, NN-dimethylacetamide, NMP, tetramethylene sulfoxide (2.5 mL/L), TMU (1.5 mL/L), 2-pyrrolidinone (1.25 mL/L), 4-metyl-2-pentanone, 1,3-dimetyl-2-imidazolidinone and N-ethyl-2-pyrrolidinone (0.6 mL/L). The incubation is then allowed to proceed overnight. The cells are removed by a centrifugation step and the supernatants are analysed by an ELISA to quantify α-interferon.
Example 1 is repeated with the same incubation conditions but with addition of 2-ABMP in combination with DMSO. The enhancing agents are added both to Sendai virus induced leukocytes and to non induced leukocytes and the effect on the α-interferon production is compared. The 2-ABMP is added at a concentration of 50 μg/ml and the amount of DMSO added is 5 mL/L.

[2] = system: Sendai virus induced human leukocytes; test: α-interferon production in Sendai virus induced human leukocytes, ELISA of supernatant; type: cell-based; conditions: for effect on production of α-interferon (in words): virus induced primary leukocytes
Protocol: The human leukocytes used according to the invention are prepared from buffy coats by an initial centrifugation to fractionate the components, followed by sequential removal of the plasma layer and of the leukocyte fraction by suction. Residual red blood cells contaminating the leukocyte fraction are lysed twice with 2-4 volumes of cold 0.83% ammonium chloride and each lysis step is followed by centrifugation to collect the cells. The final leukocyte fraction is resuspended in a basal medium, e.g. EMEM (Eagle's minimum essential medium) supplemented with polyethylene glycol-(PEG)-precipitated human plasma. PEG-precipitated plasma is prepared by adding PEG 6000 to a final concentration of 6% (w/w) to human plasma. After precipitation for 3-5 days in a cold room the supernatant is removed and stored frozen until used. The temperature of the incubation medium is set to 36-37° C. and continuous stirring is used. Human PEG-precipitated plasma is added to a concentration of 1-5% (v/v), preferably 4% (v/v). A low amount of α-interferon (normally 100 IU/ml) is added to the incubation medium as a priming step, but other concentrations, up to several thousands of units per ml can be used. Human leukocytes are then added to a concentration of about 3-15 million cells per mL, preferably 7-11 million cells per mL. The similar size of the enhancing effect observed using the different cell concentrations makes it probable that the effect can be seen also at cell concentrations outside this range. The priming step is normally allowed to proceed for 1-5 hours, preferably 1.5-2 hours. […] A decrease of the incubation temperature to 29° C. -32° C. is performed (Morser, J. And Shuttleworth, J. (1981) J. Gen. Virology 56, 163-174) after another 1 to 4 hours, preferable after 1 to 2 hours. The concentration range where the additives are effective in increasing the interferon production varies between the different compounds but for the least toxic solvents a positive effect can be seen in the range of 1 mM-0.3 M, preferably in the range of 3 mM-50 mM and most preferably within 5 mM-20 mM. For the more toxic solvents the suitable concentration lies within the more limited ranges. […] After these additions, the incubation is allowed to proceed overnight with continuous stirring. A centrifugation step is performed to remove the cells and the supernatants are analysed by an ELISA to quantify α-interferon. Human leukocytes prepared from buffy coats and used in concentrations between 8 and 11 million cells per mL are incubated in a basal media (either EMEM or a modified EMEM) supplemented with 1.5 g/L of tricine and 4% (v/v) PEG precipitated plasma. […] The cells are removed by a centrifugation step and the supernatants are analysed by an ELISA to quantify α-interferon. […]

SMILES	induction of α-interferon (in words) [1]	effect on production of α-interferon (in words) [2]	effect on yield of α-interferon (in words) ([2]; pre-treatment of primary leukocytes)
Cc1nc(N)nc(O)c1Br [2-ABMP, 2-amino-5-bromo-6-methyl-4-pyrimidinol]	did not induce α-interferon	act as an enhancing agent	
C[S+](C)[O-] [dimethylsulfoxide]		enhanced	
CCCC(=O)[O-].[Na+] [sodium butyrate]			decrease
Cn1c(=O)c2[nH]cnc2n(C)c1=O [theophylline]		enhanced	

— patent US6962695B1, “Modification of interferon alpha production” (Bionative AB, priority 1998, dated 2005)
